Data as given in ChEMBL document CHEMBL1255385, “Constitutive SoxS expression in a fluoroquinolone-resistant strain with a truncated SoxR protein and identification of a new member of the marA-soxS-rob regulon, mdtG” (2010).
≈ marks a conversion by molar mass, not a printed value.

How the values were obtained:
[1] = system: Escherichia coli; test: Antimicrobial activity against fluoroquinolone-susceptible Escherichia coli PS5 harboring GyrA S83L mutant gene by Etest; assay type: functional
[2] = system: Escherichia coli; test: Antimicrobial activity against fluoroquinolone-resistant Escherichia coli NorE5 harboring GyrA S83L mutant, ParC S80R mutant, truncated SoxR and constitutively active SoxS by Etest; assay type: functional

| Compound | MIC [1] [µg/mL] | MIC [2] [µg/mL] |
| --- | --- | --- |
| NCC[C@H](O)C(=O)N[C@@H]1C[C@H](N)[C@@H](O[C@H]2O[C@H](CN)[C@@H](O)[C@H](O)[C@H]2O)[C@H](O)[C@H]1O[C@H]1O[C@H](CO)[C@@H](O)[C@H](N)[C@H]1O [AMIKACIN] | 12 (≈ 20.5 µM) | 12 (≈ 20.5 µM) |
| CC1(C)S[C@@H]2[C@H](NC(=O)[C@H](N)c3ccc(O)cc3)C(=O)N2[C@H]1C(=O)O [AMOXICILLIN] | 48 (≈ 131 µM) | > 256 |
| O=C(N[C@H](CO)[C@H](O)c1ccc([N+](=O)[O-])cc1)C(Cl)Cl [CHLORAMPHENICOL] | 8 (≈ 24.8 µM) | 64 (≈ 198 µM) |
| CC[C@H]1OC(=O)[C@H](C)[C@@H](O[C@H]2C[C@@](C)(OC)[C@@H](O)[C@H](C)O2)[C@H](C)[C@@H](O[C@@H]2O[C@H](C)C[C@H](N(C)C)[C@H]2O)[C@](C)(O)C[C@@H](C)C(=O)[C@H](C)[C@@H](O)[C@]1(C)O [ERYTHROMYCIN] | 64 (≈ 87.2 µM) | > 256 |
| CCn1cc(C(=O)O)c(=O)c2ccc(C)nc21 [NALIDIXIC ACID] | 1020 (≈ 4410 µM) | 2050 (≈ 8820 µM) |
| CCn1cc(C(=O)O)c(=O)c2cc(F)c(N3CCNCC3)cc21 [NORFLOXACIN] | 0.5 (≈ 1.57 µM) | 32 (≈ 100 µM) |
| CN(C)[C@@H]1C(O)=C(C(N)=O)C(=O)[C@@]2(O)C(O)=C3C(=O)c4c(O)cccc4[C@@](C)(O)[C@H]3C[C@@H]12 [TETRACYCLINE] | 2 (≈ 4.5 µM) | 8 (≈ 18 µM) |
| COc1cc(Cc2cnc(N)nc2N)cc(OC)c1OC [TRIMETHOPRIM] | 0.5 (≈ 1.72 µM) | 8 (≈ 27.6 µM) |
